Experimental data reported in patent US20260201008A1, “SECRETIN-DERIVED GLP1R SELECTIVE AGONISTS” (GUBRA A/S, priority 2023, published 2026).
Where two headings read alike, the source gives them in different places. Numbered stars: 1 amine (or outer) side, 2 acyl side, 3 side chain; on linkers, the order of the positions; unused ones are H or OH. Square brackets hold non-standard residues; d marks the D form. Side chains are listed from the residue outwards. Peptide text beside a SMILES is read from it. * marks the point of attachment. C20 diacid = O=C(O)CCCCCCCCCCCCCCCCCCC(=O)*; γGlu = O=C(O)[C@H](CCC(=O)[*:2])N[*:1]; AEEA = NCCOCCOCC(=O)O; Aib = CC(C)(N)C(=O)O

Experiments:
[1] = biological target: SCTR (Homo sapiens, UniProt P47872); experiment: hSCTR potency, cAMP accumulation in CHO-K1 cells stably overexpressing hSCTR; assay type: cell-based; parameters: alternatively Euroscreen ES-712-AF; FAST-0161L; host or cells: CHO-K1; conditions: cAMP accumulation
Chain of SCTR (P47872 23-440): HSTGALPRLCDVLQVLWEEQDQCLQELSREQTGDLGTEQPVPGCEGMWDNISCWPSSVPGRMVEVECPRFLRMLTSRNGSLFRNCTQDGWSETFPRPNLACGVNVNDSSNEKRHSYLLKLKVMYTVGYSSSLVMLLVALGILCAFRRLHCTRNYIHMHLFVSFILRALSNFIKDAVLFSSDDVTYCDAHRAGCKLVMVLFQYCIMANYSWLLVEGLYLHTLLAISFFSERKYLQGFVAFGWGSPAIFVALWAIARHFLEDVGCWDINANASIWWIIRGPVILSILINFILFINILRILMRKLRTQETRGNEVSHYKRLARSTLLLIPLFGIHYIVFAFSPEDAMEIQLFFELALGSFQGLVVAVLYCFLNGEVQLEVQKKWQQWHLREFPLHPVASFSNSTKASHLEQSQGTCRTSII
Summary of the method: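 Thawed CHO-K1 cells carrying stable hSCTR are plated into casein/IBMX buffer (0.05%, 0.5 mM), dosed immediately for 30 min at room temperature, then cAMP is detected by TR-FRET. Purified peptides run as 11 three-fold dilutions in duplicate, and curves are fitted with variable slope.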

[2] = biological target: GLP1R (Homo sapiens, UniProt P43220); experiment: hGLP1R potency, cAMP accumulation in CHO-K1 cells stably overexpressing hGLP1R; assay type: cell-based; parameters: host or cells: CHO-K1; conditions: for Selectivity: SCTR EC50/GLP1R EC50 ratio; for EC50: cAMP accumulation; for SCTR EC50/GLP1R EC50 ratio: cAMP accumulation in CHO-K1 cells
Chain of GLP1R (P43220 24-463): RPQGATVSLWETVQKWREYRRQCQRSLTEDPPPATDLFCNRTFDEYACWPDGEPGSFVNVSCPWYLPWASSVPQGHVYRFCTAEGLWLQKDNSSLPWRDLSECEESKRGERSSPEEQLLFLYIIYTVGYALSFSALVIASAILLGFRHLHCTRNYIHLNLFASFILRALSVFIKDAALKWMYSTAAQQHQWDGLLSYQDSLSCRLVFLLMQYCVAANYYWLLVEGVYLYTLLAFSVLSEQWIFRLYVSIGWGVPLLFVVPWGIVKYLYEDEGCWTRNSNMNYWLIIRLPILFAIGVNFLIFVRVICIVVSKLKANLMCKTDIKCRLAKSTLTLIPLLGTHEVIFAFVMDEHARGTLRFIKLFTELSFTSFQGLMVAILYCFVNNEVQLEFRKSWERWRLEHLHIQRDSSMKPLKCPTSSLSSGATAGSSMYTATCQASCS
Summary of the method: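 2000 cells/well, DPBS + 0.05% casein + 0.5 mM IBMX; 30 min RT stimulation; HTRF cAMP detection after 1 h. Purified: 3-fold ×11, n=2; crude: 10-fold ×5, n=1. EC50 by variable-slope fit.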

[3] = Fibril formation of crude library peptides (Thioflavin T); assay type: physicochemical; parameters: key: average ThT fluorescence emission at 480 nm (ex 450 nm), raw units; conditions: Physical stability of peptides
Experimental: (§1) Peptides were dissolved in buffers (50 mM sodium acetate at pH 4.0, or 50 mM sodium phosphate at pH 7.0) to 267 μM and incubated for 1-2 hours at room temperature. The samples were then divided into two replicates of 80 μl in a black 384 well plate (μ-clear, Greiner Bio-One) and mixed with Thioflavin T (ThT) to a final concentration of 4 μM. The plate was centrifuged for 2 min at 2000 rpm to remove air bubbles, sealed, and placed in a plate reader (CLARIOstar, BMG). Firstly, turbidity of the samples was measured as the absorbance at 600 nm. Secondly, the plate reader temperature was set to 40° C. and the fluorescence was measured every 10 min for 72 hours by exciting the ThT at 450 nm and measuring the emission at 480 nm. Samples were stressed by shaking the plate at 700 rpm (linear) for five minutes before every measurement, and fibril formation was determined as the average emission for each sample.

[4] = Turbidity of crude library peptides (absorbance at 600 nm); assay type: physicochemical; conditions: Physical stability of peptides
Experimental: as §1

[5] = CHO-K1 cells overexpressing hSCTR, read-out: pEC50 hSCTR (converted)
[6] = CHO-K1 cells overexpressing hGLP1R, read-out: pEC50 hGLPR1 (converted)
[7] = CHO-K1 cells stably overexpressing hSCTR, read-out: hSCTR potency (pEC50) (converted)
[8] = CHO-K1 cells stably overexpressing hGLP1R, read-out: hGLP1R potency (pEC50) (converted)
[9] = selectivity ratio, hSCTR vs hGLP1R

Row | Structure (SMILES) | EC50 [1, 5] [nM] | Selectivity [2] | EC50 [2, 6] [nM] | Fibril formation [3] | Turbidity (pH 7) [4] | EC50 [1, 7] [nM] | EC50 [2, 8] [nM] | SCTR EC50/GLP1R EC50 ratio [2, 9] | EC50 ([1]; CHO-K1 cells overexpressing hSCTR, read-out: hSCTR pEC50 (converted)) [nM] | EC50 ([2]; CHO-K1 cells overexpressing hGLP1R, read-out: hGLP1R pEC50 (converted)) [nM] | SCTR EC50/GLP1R EC50 ratio ([2]; selectivity for hGLP1R over hSCTR)
1 | CC[C@H](C)[C@H](NC(=O)[C@H](Cc1ccccc1)NC(=O)[C@H](CCCNC(=N)N)NC(=O)[C@H](CCC(N)=O)NC(=O)[C@H](CC(C)C)NC(=O)[C@H](C)NC(=O)[C@H](C)NC(=O)CNC(=O)[C@H](CCC(=O)O)NC(=O)[C@H](CC(C)C)NC(=O)[C@H](CC(C)C)NC(=O)[C@H](Cc1c[nH]c2ccccc12)NC(=O)[C@H](CO)NC(=O)[C@H](Cc1ccc(O)cc1)NC(=O)[C@H](CC(=O)O)NC(=O)[C@H](CO)NC(=O)[C@@H](NC(=O)[C@H](Cc1ccccc1)NC(=O)[C@@H](NC(=O)CNC(=O)[C@H](CCC(=O)O)NC(=O)C(C)(C)NC(=O)[C@@H](N)Cc1c[nH]cn1)[C@@H](C)O)[C@@H](C)O)C(=O)N[C@@H](CCC(N)=O)C(=O)N[C@@H](Cc1c[nH]c2ccccc12)C(=O)N[C@@H](CC(C)C)C(=O)N[C@H](C(N)=O)C(C)C [compound 200] (H-H[Aib]EGTFTSDYSWLLEGAALQRFIQWLV-NH2) |  |  |  | 141730 | 0.92 | 7.94 | 0.02 | 353 |  |  | 
2 | CC[C@H](C)[C@H](NC(=O)[C@H](Cc1ccccc1)NC(=O)[C@H](CCCNC(=N)N)NC(=O)[C@H](CCC(N)=O)NC(=O)[C@H](CC(C)C)NC(=O)[C@H](C)NC(=O)[C@H](C)NC(=O)CNC(=O)[C@H](CCC(=O)O)NC(=O)[C@H](CC(C)C)NC(=O)[C@H](CC(C)C)NC(=O)[C@H](CCCNC(=N)N)NC(=O)[C@H](CO)NC(=O)[C@H](Cc1ccc(O)cc1)NC(=O)[C@H](CC(=O)O)NC(=O)[C@H](CO)NC(=O)[C@@H](NC(=O)[C@H](Cc1ccccc1)NC(=O)[C@@H](NC(=O)CNC(=O)[C@H](CCC(=O)O)NC(=O)C(C)(C)NC(=O)[C@@H](N)Cc1c[nH]cn1)[C@@H](C)O)[C@@H](C)O)C(=O)N[C@@H](CCC(N)=O)C(=O)N[C@@H](Cc1c[nH]c2ccccc12)C(=O)N[C@@H](CC(C)C)C(=O)N[C@H](C(N)=O)C(C)C [compound 194] (H-H[Aib]EGTFTSDYSRLLEGAALQRFIQWLV-NH2) |  |  |  | 8355 | 0.27 | 1.58 | 0.0126 | 114 |  |  | 
3 | CC[C@H](C)[C@H](NC(=O)[C@H](Cc1ccccc1)NC(=O)[C@H](CCCNC(=N)N)NC(=O)[C@H](CCC(N)=O)NC(=O)[C@H](CC(C)C)NC(=O)[C@H](C)NC(=O)[C@H](C)NC(=O)CNC(=O)[C@H](CCC(=O)O)NC(=O)[C@H](CC(C)C)NC(=O)[C@H](CC(C)C)NC(=O)[C@H](Cc1ccccc1)NC(=O)[C@H](CO)NC(=O)C(C)(C)NC(=O)[C@H](CC(=O)O)NC(=O)[C@H](CO)NC(=O)[C@@H](NC(=O)[C@H](Cc1ccccc1)NC(=O)[C@@H](NC(=O)CNC(=O)[C@H](CCC(=O)O)NC(=O)C(C)(C)NC(=O)[C@@H](N)Cc1c[nH]cn1)[C@@H](C)O)[C@@H](C)O)C(=O)N[C@@H](CCC(N)=O)C(=O)N[C@@H](Cc1c[nH]c2ccccc12)C(=O)N[C@@H](CC(C)C)C(=O)N[C@H](C(N)=O)C(C)C [compound 111] (H-H[Aib]EGTFTSD[Aib]SFLLEGAALQRFIQWLV-NH2) |  |  |  | 26712 | 0.24 |  |  |  | 2000 | 0.0316 | 70974

Continued, values first:

Row | EC50 [1, 5] [nM] | Selectivity [2] | EC50 [2, 6] [nM] | Fibril formation [3] | Turbidity (pH 7) [4] | EC50 [1, 7] [nM] | EC50 [2, 8] [nM] | SCTR EC50/GLP1R EC50 ratio [2, 9] | EC50 ([1]; CHO-K1 cells overexpressing hSCTR, read-out: hSCTR pEC50 (converted)) [nM] | EC50 ([2]; CHO-K1 cells overexpressing hGLP1R, read-out: hGLP1R pEC50 (converted)) [nM] | SCTR EC50/GLP1R EC50 ratio ([2]; selectivity for hGLP1R over hSCTR) | Structure (SMILES)
4 | 63.1 | 4577 | 0.0126 | 97558 | 0.08 |  |  |  |  |  |  | CC(C)C[C@H](NC(=O)[C@H](Cc1ccccc1)NC(=O)[C@H](CCCNC(=N)N)NC(=O)[C@H](CCC(N)=O)NC(=O)[C@@H](NC(=O)[C@H](C)NC(=O)[C@H](C)NC(=O)[C@@H](NC(=O)[C@H](CCC(=O)O)NC(=O)[C@H](CCCCNC(=O)COCCOCCNC(=O)COCCOCCNC(=O)CC[C@H](NC(=O)CCCCCCCCCCCCCCCCCCC(=O)O)C(=O)O)NC(=O)[C@H](CC(C)C)NC(=O)[C@H](CCCNC(=N)N)NC(=O)[C@H](CO)NC(=O)[C@@H](NC(=O)[C@H](CC(=O)O)NC(=O)[C@H](CO)NC(=O)[C@@H](NC(=O)[C@H](Cc1ccccc1)NC(=O)[C@@H](NC(=O)CNC(=O)[C@H](CCC(=O)O)NC(=O)C(C)(C)NC(=O)[C@@H](N)Cc1c[nH]cn1)[C@@H](C)O)[C@@H](C)O)C(C)C)[C@@H](C)O)[C@@H](C)O)C(=O)N[C@@H](CCC(=O)O)C(=O)N[C@@H](Cc1c[nH]cn1)C(=O)N[C@@H](CC(C)C)C(=O)N[C@H](C(N)=O)C(C)C [compound 26] (H-H[Aib]EGTFTSDVSRLK([AEEA-AEEA-γGlu-C20 diacid])ETAATQRFLEHLV-NH2)
5 |  |  |  | 5187 | 0.08 | 20 | 0.0126 | 1743 |  |  |  | CC(C)C[C@H](NC(=O)[C@H](Cc1ccc(O)cc1)NC(=O)[C@H](CO)NC(=O)[C@H](Cc1ccc(O)cc1)NC(=O)[C@H](CC(=O)O)NC(=O)[C@H](CO)NC(=O)[C@@H](NC(=O)[C@H](Cc1ccccc1)NC(=O)[C@@H](NC(=O)CNC(=O)[C@H](CCC(=O)O)NC(=O)C(C)(C)NC(=O)[C@@H](N)Cc1c[nH]cn1)[C@@H](C)O)[C@@H](C)O)C(=O)N[C@@H](CCCCNC(=O)COCCOCCNC(=O)COCCOCCNC(=O)CC[C@H](NC(=O)CCCCCCCCCCCCCCCCCCC(=O)O)C(=O)O)C(=O)N[C@@H](CCC(=O)O)C(=O)N[C@@H](CCC(=O)O)C(=O)N[C@@H](C)C(=O)NC(C)(C)C(=O)N[C@@H](CC(C)C)C(=O)N[C@@H](CCC(N)=O)C(=O)N[C@@H](CCCNC(=N)N)C(=O)N[C@@H](Cc1ccccc1)C(=O)N[C@@H](CC(C)C)C(=O)N[C@@H](CCC(=O)O)C(=O)N[C@@H](Cc1c[nH]cn1)C(=O)N[C@@H](CC(C)C)C(=O)N[C@H](C(N)=O)C(C)C [compound 196] (H-H[Aib]EGTFTSDYSYLK([AEEA-AEEA-γGlu-C20 diacid])EEA[Aib]LQRFLEHLV-NH2)
6 | 100 | 4095 | 0.02 | 99118 | 0.11 |  |  |  |  |  |  | CC(C)C[C@H](NC(=O)[C@H](Cc1ccccc1)NC(=O)[C@H](CCCNC(=N)N)NC(=O)[C@H](CCC(N)=O)NC(=O)[C@@H](NC(=O)[C@H](C)NC(=O)[C@H](C)NC(=O)[C@@H](NC(=O)[C@H](CCC(=O)O)NC(=O)[C@H](CCCCNC(=O)COCCOCCNC(=O)COCCOCCNC(=O)CC[C@H](NC(=O)CCCCCCCCCCCCCCCCCCC(=O)O)C(=O)O)NC(=O)[C@H](CC(C)C)NC(=O)[C@H](Cc1ccccc1)NC(=O)[C@H](CO)NC(=O)[C@@H](NC(=O)[C@H](CC(=O)O)NC(=O)[C@H](CO)NC(=O)[C@@H](NC(=O)[C@H](Cc1ccccc1)NC(=O)[C@@H](NC(=O)CNC(=O)[C@H](CCC(=O)O)NC(=O)C(C)(C)NC(=O)[C@@H](N)Cc1c[nH]cn1)[C@@H](C)O)[C@@H](C)O)C(C)C)[C@@H](C)O)[C@@H](C)O)C(=O)N[C@@H](CCC(=O)O)C(=O)N[C@@H](Cc1c[nH]cn1)C(=O)N[C@@H](CC(C)C)C(=O)N[C@H](C(N)=O)C(C)C [compound 70] (H-H[Aib]EGTFTSDVSFLK([AEEA-AEEA-γGlu-C20 diacid])ETAATQRFLEHLV-NH2)
